{
  "source": "paper PMC1448180",
  "about": "“Small-molecule and mutational analysis of allosteric Eg5 inhibition by monastrol” (BMC Chemical Biology, 2006)",
  "key": {"BS-C-1 cells": {"tested_on": "BS-C-1 cells", "assay": "Monoaster formation in tissue culture cells (manual count of mitotic cells)", "format": "cell-based, green monkey", "conditions": "Chlorocebus sabaeus, BSC-1, 6 h, read-out: Cells: monoaster formation score (drug concentration with roughly equal monastral and bipolar spindles)", "protocol": "Figure 2 Structure-activity relationship of monastrol derivatives. (A) Scheme depicting the Biginelli condensation, a one-pot reaction for preparing monastrol derivatives. […] Each data point is the average of three independent experiments. […] Each cell-based assay was performed in duplicate.\n(§1) Conditions for growing the following cell lines are as described: D. rerio AB9 (37), D. melanogaster KC167 [38], and BS-C-1 green monkey kidney cells. For immunofluorescence microscopy, cells were grown on 12 mm circular coverslips to 30 % confluence, treated medium supplemented with drug and 0.2% DMSO, or a DMSO alone, for 6 hours, fixed with formaldehyde, and stained for DNA and microtubules, as described. D. melanogaster KC167 cells were cultured in Schneider's Drosophila Medium (GIBCO) whereas D. rerio AB9 cells and BS-C-1 green monkey kidney cells were cultured at 37°C in Dulbecco's Minimal medium in the presence of 10 % heat inactivated fetal calf serum."}, "hEg5-367H (R119L)": {"target": "T1, hEg5-367H (R119L) (Homo sapiens, UniProt P52732, R119L)", "T1 sequence (P52732 1-367 R119L)": "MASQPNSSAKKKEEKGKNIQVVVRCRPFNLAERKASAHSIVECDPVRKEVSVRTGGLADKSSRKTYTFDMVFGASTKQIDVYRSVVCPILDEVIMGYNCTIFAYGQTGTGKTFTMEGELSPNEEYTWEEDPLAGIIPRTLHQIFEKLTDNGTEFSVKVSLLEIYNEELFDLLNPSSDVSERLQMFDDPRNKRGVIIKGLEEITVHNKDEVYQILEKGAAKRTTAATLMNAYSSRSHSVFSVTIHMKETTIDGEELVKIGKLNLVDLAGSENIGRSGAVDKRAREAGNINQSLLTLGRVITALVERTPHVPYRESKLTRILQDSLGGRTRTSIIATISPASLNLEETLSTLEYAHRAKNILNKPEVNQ", "assay": "ATP hydrolysis by Eg5 motor domain mutant R119L", "format": "biochemical", "conditions": "Figure 4B; legend: basal ATP hydrolysis; read-out: IC50(μM) of monastrol, (R119L)", "description": "(§2) Figure 4 Mutagenesis of the monastrol binding site in human Eg5. (A) Design of mutations in the human Eg5 motor domain. Amino acid side chains that are not conserved between Eg5 and conventional kinesin were targeted, either introducing chimeric or rationally designed mutations (asterix for targeted point mutants) to test the contribution of residues to the drug-sensitivity of Eg5. (B) Steady-state enzymatic parameters for engineered human Eg5 motor domain mutants. Steady-state ATP hydrolysis by Eg5 was measured using an NADH-enzyme coupled assay varying the concentration of ATP, microtubules, or monastrol to obtain the microtubule concentration for half-maximal stimulation (K0.5MT), the maximal rate of microtubule-stimulated ATP hydrolysis (kcat), and the concentration of monastrol that inhibits basal ATP hydrolysis by 50 % (IC50), as described.\n(§3) We used a modified PCR mutagenesis protocol to introduce mutations into hEg5-367H, a plasmid encoding the C-terminally His6-tagged motor domain (amino acid residues 1–367) of human Eg5. […]\n(§4) ATP hydrolysis by recombinantly expressed kinesin motor domains was measured using an NADH-enzyme coupled assay. ATP hydrolysis was measured in KC25 buffer supplemented with 5 μM taxol, 1 mM ATP-KOH (pH 7.0), the appropriate concentration of motor domain, and the appropriate concentrations of taxol-polymerized microtubules."}, "hEg5-367H (Y211M)": {"target": "T2, hEg5-367H (Y211M) (Homo sapiens, UniProt P52732, Y211M)", "T2 sequence (P52732 1-367 Y211M)": "T1 sequence (P52732 1-367 R119L) with L119R, Y211M", "assay": "ATP hydrolysis by Eg5 motor domain mutant Y211M", "format": "biochemical", "conditions": "Figure 4B; legend: basal ATP hydrolysis; read-out: IC50(μM) of monastrol, (Y211M)", "description": "as §2, §3, §4"}, "hEg5-367H (L214I)": {"target": "T3, hEg5-367H (L214I) (Homo sapiens, UniProt P52732, L214I)", "T3 sequence (P52732 1-367 L214I)": "T1 sequence (P52732 1-367 R119L) with L119R, L214I", "assay": "ATP hydrolysis by Eg5 motor domain mutant L214I", "format": "biochemical", "conditions": "Figure 4B; legend: basal ATP hydrolysis; read-out: IC50(μM) of monastrol, (L214I)", "description": "as §2, §3, §4"}, "AB9 cells": {"tested_on": "AB9 cells", "assay": "Spindle phenotype of D. rerio cells treated with monastrol", "format": "cell-based", "conditions": "data not shown", "description": "(§5) Monastrol binds a hydrophobic pocket between loop 5 and α3 that is poorly conserved among kinesins, resulting in specificity for vertebrate Eg5 homologs. […] Monastrol is known to inhibit human and Xenopus Eg5 [7, 9], but not BimC [27]. To test its effect on D. rerio Eg5 and Klp-61F, we treated AB9 and KC167 cells with monastrol. […] To obtain unambiguous evidence, we cloned the motor domain of Klp-61F and subjected the recombinant protein to ATPase assays in the presence or absence of microtubules.\nas §1"}, "KC167 cells": {"tested_on": "KC167 cells", "assay": "Spindle phenotype of Drosophila cells treated with monastrol", "format": "cell-based, D. melanogaster", "conditions": "data not shown", "description": "as §5, §1"}, "human Eg5": {"tested_on": "human Eg5", "set-up": "method as in PMID 10542155, PMID 10973989", "conditions": "cited from earlier work"}, "Xenopus Eg5": {"tested_on": "Xenopus Eg5", "set-up": "method as in PMID 10542155, PMID 10973989", "conditions": "cited from earlier work"}, "BimC": {"tested_on": "BimC", "set-up": "method as in PMID 12525161", "conditions": "cited from earlier work"}},
  "note": "Numbering of substitutions follows the chain as printed.",
  "data": [
    {"smiles": "CCOC(=O)C1=C(C)NC(=S)NC1c1cccc(O)c1", "note": "(stereo not drawn) [Monastrol]", "values": [
      {"measurement": "EC50", "setting": "BS-C-1 cells", "value": "< 50", "unit": "µM"},
      {"measurement": "IC50", "setting": "hEg5-367H (R119L)", "value": "17 ± 2", "unit": "µM"},
      {"measurement": "IC50", "setting": "hEg5-367H (Y211M)", "value": "0.8 ± 0.3", "unit": "µM"},
      {"measurement": "IC50", "setting": "hEg5-367H (L214I)", "value": "63 ± 7", "unit": "µM"},
      {"measurement": "Effect on mitosis in D. rerio cells", "setting": "AB9 cells", "value": "mitotic arrest"},
      {"measurement": "Effect on spindles in Drosophila cells", "setting": "KC167 cells", "value": "normal, bipolar spindles"},
      {"measurement": "Inhibition of human Eg5", "setting": "human Eg5", "value": "inhibit"},
      {"measurement": "Inhibition of Xenopus Eg5", "setting": "Xenopus Eg5", "value": "inhibit"},
      {"measurement": "Inhibition of BimC", "setting": "BimC", "value": "not"}
    ]}
  ]
}
